PMC6437697 (Journal of Medicinal Chemistry, 2019)

Legend:
Test in all cases: KINOMEscan
Format in all cases: binding
NLK = biological target: T1, NLK (Homo sapiens, UniProt Q9UBE8); conditions: read-out: % control activity remaining
T1 construct: purchased Eurofins DiscoverX KINOMEscan
T1 sequence (Q9UBE8 1-527): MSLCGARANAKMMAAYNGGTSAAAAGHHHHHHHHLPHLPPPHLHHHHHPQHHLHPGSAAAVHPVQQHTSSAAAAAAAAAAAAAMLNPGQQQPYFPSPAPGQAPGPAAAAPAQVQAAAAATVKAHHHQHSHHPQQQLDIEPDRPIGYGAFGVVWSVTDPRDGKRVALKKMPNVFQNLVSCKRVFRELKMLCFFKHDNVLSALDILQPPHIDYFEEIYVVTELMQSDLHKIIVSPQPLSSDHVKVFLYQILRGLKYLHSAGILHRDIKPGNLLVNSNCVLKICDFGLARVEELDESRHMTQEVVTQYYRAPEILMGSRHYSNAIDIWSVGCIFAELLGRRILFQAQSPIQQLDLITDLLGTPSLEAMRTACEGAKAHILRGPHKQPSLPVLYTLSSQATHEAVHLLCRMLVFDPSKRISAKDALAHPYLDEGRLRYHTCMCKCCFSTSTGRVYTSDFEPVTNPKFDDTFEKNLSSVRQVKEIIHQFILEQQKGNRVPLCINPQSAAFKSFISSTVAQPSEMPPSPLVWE

ACVR2B = biological target: T2, ACVR2B (Homo sapiens, UniProt Q13705); conditions: read-out: % control activity remaining
T2 construct: purchased Eurofins DiscoverX KINOMEscan
T2 sequence (Q13705 19-512): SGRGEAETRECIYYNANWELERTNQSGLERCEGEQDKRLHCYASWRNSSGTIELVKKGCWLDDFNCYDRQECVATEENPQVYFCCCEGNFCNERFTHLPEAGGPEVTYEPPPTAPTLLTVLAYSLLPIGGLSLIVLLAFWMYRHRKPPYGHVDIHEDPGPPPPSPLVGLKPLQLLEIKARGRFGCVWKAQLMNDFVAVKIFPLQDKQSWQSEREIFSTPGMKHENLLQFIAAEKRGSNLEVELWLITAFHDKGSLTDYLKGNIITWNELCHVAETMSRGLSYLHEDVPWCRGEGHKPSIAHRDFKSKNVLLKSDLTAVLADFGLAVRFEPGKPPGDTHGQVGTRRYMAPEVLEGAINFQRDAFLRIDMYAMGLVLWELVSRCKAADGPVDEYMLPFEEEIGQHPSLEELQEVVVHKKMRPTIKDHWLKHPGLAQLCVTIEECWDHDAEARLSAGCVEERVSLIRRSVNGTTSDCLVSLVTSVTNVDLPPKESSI

FES = biological target: T3, FES (Homo sapiens, UniProt P07332); conditions: read-out: % control activity remaining
T3 construct: purchased Eurofins DiscoverX KINOMEscan

CSK = biological target: T4, CSK (Homo sapiens, UniProt P41240); conditions: read-out: % control activity remaining
T4 construct: purchased Eurofins DiscoverX KINOMEscan
T4 sequence (P41240 whole entry): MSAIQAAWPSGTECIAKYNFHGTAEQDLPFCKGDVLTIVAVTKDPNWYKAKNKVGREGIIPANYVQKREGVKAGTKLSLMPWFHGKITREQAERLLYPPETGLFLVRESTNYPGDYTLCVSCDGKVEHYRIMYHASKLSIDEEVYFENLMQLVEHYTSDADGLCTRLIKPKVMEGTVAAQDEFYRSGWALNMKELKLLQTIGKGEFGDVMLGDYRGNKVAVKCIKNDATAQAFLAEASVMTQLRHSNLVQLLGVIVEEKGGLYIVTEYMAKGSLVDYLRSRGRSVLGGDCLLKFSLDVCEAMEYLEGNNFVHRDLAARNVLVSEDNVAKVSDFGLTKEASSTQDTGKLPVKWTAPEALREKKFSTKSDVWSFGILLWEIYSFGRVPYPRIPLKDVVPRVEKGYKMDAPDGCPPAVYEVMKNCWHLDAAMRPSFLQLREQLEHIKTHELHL

ALK(L1196M) = biological target: T5, ALK(L1196M) (Homo sapiens, UniProt Q9UM73, L1196M); conditions: read-out: % control activity remaining
T5 construct: purchased Eurofins DiscoverX KINOMEscan

PAK4 = biological target: T6, PAK4 (Homo sapiens, UniProt O96013); conditions: read-out: % control activity remaining
T6 construct: purchased Eurofins DiscoverX KINOMEscan

ICK = biological target: T7, ICK (Homo sapiens, UniProt Q9UPZ9); conditions: read-out: % control activity remaining
T7 construct: purchased Eurofins DiscoverX KINOMEscan
T7 sequence (Q9UPZ9 1-632): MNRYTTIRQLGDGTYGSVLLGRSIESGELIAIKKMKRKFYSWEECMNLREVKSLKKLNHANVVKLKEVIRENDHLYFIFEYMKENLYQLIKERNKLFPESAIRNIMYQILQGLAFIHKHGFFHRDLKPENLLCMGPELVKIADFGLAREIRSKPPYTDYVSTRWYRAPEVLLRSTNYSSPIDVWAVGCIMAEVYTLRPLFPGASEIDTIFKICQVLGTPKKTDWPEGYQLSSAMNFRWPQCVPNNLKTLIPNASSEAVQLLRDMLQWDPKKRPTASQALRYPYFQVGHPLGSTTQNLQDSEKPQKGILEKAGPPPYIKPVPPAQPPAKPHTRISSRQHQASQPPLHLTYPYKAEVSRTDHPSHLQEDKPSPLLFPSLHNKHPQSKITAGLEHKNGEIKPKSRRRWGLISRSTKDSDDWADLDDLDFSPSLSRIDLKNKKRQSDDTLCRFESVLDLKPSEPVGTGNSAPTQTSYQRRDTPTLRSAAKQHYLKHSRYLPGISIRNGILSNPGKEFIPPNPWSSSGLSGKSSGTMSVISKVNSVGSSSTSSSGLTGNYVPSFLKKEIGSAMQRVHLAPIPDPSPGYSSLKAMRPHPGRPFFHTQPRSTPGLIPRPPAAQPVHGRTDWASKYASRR

AURKC = biological target: T8, AURKC (Homo sapiens, UniProt Q9UQB9); conditions: read-out: % control activity remaining
T8 construct: purchased Eurofins DiscoverX KINOMEscan
T8 sequence (Q9UQB9 1-309): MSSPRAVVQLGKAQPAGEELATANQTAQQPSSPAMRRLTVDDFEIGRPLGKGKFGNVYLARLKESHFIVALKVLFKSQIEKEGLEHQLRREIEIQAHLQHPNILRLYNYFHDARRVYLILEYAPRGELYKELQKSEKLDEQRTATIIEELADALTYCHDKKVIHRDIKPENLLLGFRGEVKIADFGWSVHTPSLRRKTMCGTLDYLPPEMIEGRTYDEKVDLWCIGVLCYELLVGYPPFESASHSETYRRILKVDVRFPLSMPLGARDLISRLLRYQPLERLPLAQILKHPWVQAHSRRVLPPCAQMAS

PIK4CB = biological target: T9, PIK4CB (Homo sapiens, UniProt Q9UBF8); conditions: for remaining binding at 1 µM: read-out: % control activity remaining
T9 construct: purchased Eurofins DiscoverX KINOMEscan

CSNK1E = biological target: T10, CSNK1E (Homo sapiens, UniProt P49674); conditions: read-out: % control activity remaining
T10 construct: purchased Eurofins DiscoverX KINOMEscan
T10 sequence (P49674 whole entry): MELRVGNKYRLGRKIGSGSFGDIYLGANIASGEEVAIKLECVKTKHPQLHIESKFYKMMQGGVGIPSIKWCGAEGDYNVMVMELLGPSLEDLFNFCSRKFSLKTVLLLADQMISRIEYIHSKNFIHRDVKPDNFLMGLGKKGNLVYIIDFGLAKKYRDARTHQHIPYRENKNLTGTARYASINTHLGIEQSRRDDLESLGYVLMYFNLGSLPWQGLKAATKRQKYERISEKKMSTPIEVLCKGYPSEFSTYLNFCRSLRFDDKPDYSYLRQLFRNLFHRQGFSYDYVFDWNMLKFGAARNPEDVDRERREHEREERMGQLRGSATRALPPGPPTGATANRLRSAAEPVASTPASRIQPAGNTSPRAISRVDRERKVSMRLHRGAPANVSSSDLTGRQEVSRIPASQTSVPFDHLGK

ERBB2 = biological target: T11, ERBB2 (Homo sapiens, UniProt P04626); conditions: read-out: % control activity remaining
T11 construct: purchased Eurofins DiscoverX KINOMEscan
T11 sequence (P04626 23-1255 limits assumed): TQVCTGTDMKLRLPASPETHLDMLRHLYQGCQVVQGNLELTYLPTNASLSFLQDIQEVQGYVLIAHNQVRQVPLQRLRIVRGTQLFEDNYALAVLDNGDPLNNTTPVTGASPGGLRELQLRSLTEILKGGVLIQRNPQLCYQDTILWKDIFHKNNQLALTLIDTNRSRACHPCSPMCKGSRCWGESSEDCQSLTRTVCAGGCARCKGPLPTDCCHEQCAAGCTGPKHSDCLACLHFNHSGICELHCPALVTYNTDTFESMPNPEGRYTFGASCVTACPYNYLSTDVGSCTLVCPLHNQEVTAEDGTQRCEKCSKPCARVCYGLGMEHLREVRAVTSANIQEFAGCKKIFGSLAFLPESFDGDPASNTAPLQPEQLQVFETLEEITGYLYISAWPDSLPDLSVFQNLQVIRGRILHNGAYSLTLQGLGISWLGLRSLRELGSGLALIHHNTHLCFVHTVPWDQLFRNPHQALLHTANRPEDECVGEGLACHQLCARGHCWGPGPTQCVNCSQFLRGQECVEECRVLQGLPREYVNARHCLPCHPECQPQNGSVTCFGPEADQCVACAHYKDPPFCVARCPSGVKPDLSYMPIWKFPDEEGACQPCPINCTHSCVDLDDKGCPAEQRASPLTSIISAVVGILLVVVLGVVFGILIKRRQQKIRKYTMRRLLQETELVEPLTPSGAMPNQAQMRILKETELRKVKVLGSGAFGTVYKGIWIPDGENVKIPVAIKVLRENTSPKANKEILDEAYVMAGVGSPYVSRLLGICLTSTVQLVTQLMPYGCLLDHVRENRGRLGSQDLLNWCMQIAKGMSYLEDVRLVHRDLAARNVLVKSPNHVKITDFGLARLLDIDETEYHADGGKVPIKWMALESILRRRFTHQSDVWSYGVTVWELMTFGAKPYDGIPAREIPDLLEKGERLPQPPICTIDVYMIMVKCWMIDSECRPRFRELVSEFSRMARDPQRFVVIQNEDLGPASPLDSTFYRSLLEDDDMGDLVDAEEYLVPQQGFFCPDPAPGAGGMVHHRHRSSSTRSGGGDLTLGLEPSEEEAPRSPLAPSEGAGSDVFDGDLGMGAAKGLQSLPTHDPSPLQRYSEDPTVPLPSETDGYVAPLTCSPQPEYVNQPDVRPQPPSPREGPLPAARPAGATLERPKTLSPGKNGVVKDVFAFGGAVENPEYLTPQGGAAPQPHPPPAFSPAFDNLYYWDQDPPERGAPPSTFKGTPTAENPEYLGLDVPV

SRPK3 = biological target: T12, SRPK3 (Homo sapiens, UniProt Q9UPE1); conditions: read-out: % control activity remaining
T12 construct: purchased Eurofins DiscoverX KINOMEscan
T12 sequence (Q9UPE1 whole entry): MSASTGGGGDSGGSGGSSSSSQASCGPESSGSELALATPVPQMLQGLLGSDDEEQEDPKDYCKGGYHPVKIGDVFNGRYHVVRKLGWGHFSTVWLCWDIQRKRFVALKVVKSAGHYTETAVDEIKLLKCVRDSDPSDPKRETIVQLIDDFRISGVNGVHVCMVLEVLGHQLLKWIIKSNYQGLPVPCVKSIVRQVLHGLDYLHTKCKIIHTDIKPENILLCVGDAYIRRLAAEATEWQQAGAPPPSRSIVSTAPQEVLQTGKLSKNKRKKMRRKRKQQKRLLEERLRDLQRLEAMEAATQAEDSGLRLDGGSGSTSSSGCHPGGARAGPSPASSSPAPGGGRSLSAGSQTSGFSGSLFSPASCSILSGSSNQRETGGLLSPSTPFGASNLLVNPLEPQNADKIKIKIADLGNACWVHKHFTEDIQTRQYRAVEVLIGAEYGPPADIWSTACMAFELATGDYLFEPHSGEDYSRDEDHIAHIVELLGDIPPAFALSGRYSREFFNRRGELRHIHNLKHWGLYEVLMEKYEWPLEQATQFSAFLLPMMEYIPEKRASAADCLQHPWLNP

[1] = biological target: T13, ABL1(F317I)-nonphosphorylated (Homo sapiens, UniProt P00519, F317I); conditions: read-out: % control activity remaining
T13 construct: purchased Eurofins DiscoverX KINOMEscan

PHKG1 = biological target: T14, PHKG1 (Homo sapiens, UniProt Q16816); conditions: read-out: % control activity remaining
T14 construct: purchased Eurofins DiscoverX KINOMEscan
T14 sequence (Q16816 whole entry): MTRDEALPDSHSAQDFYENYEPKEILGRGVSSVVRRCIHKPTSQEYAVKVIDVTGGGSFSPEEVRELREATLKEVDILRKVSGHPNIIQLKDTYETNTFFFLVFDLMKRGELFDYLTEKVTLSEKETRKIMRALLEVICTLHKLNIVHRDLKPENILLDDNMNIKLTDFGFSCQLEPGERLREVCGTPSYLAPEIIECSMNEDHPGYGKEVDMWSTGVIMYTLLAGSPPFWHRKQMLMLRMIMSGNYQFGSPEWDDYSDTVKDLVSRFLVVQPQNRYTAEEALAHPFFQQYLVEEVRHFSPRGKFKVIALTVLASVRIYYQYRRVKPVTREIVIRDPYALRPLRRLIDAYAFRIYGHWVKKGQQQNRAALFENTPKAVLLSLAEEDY

ERK2 = biological target: T15, ERK2 (Homo sapiens, UniProt P28482); conditions: read-out: % control activity remaining
T15 construct: purchased Eurofins DiscoverX KINOMEscan
T15 sequence (P28482 whole entry): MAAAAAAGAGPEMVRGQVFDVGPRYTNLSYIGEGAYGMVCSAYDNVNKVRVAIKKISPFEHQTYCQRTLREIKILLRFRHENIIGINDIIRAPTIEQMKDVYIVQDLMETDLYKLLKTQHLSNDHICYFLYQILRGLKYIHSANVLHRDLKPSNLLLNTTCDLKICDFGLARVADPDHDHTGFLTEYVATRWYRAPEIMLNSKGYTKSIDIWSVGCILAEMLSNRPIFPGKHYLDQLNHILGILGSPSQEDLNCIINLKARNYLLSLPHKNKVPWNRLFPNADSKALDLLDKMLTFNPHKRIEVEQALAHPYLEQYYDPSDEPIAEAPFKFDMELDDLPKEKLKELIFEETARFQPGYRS

LIMK2 = biological target: T16, LIMK2 (Homo sapiens, UniProt P53671); conditions: read-out: % control activity remaining
T16 construct: purchased Eurofins DiscoverX KINOMEscan
T16 sequence (P53671 whole entry): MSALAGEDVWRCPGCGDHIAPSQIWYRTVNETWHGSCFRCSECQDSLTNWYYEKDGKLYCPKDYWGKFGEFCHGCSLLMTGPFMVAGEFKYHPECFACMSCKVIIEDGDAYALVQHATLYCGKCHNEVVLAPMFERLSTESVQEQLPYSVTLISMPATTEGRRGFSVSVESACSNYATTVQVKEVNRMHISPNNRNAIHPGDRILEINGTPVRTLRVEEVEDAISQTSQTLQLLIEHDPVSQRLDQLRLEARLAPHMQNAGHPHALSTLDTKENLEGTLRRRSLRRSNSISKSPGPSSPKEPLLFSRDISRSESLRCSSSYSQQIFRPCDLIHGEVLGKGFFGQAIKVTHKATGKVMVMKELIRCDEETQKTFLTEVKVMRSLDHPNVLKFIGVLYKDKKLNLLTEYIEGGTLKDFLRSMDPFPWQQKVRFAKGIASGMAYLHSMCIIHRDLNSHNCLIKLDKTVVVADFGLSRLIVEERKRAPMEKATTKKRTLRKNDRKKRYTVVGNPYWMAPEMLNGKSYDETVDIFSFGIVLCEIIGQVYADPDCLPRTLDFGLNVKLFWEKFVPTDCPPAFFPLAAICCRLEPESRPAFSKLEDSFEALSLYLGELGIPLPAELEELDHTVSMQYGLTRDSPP

Structure (SMILES)	remaining binding at 1 µM (NLK) [%]	remaining binding at 1 µM (ACVR2B) [%]	remaining binding at 1 µM (FES) [%]	remaining binding at 1 µM (CSK) [%]	remaining binding at 1 µM (ALK(L1196M)) [%]	remaining binding at 1 µM (PAK4) [%]	remaining binding at 1 µM (ICK) [%]	remaining binding at 1 µM (AURKC) [%]	remaining binding at 1 µM (PIK4CB) [%]	inhibition at 1 µM (PIK4CB; read-out: Probe binding inhibited) [%]	remaining binding at 1 µM (CSNK1E) [%]	remaining binding at 1 µM (ERBB2) [%]	remaining binding at 1 µM (SRPK3) [%]	remaining binding at 1 µM [1] [%]	remaining binding at 1 µM (PHKG1) [%]	remaining binding at 1 µM (ERK2) [%]	remaining binding at 1 µM (LIMK2) [%]
Clc1cc(NCC2CC2)c2ncc(-c3ccc4[nH]ncc4c3)n2n1 [compound 2, 6-Chloro-N-(cyclopropylmethyl)-3-(1H-indazol-5-yl)imidazo[1,2-b]pyridazin-8-amine]	70	100	87	100	77	79	80	92	3.3	> 90	71	100	49	71	91	92	94
O=C(CN1CCOCC1)N[C@H]1CC[C@H](Nc2cc(Cl)nn3c(-c4ccc5[nH]ncc5c4)cnc23)CC1 [compound 26]	100	99	88	94	90	93	74	58	21	–	44	97	66	28	17	93	85
CN1CCC(CNc2cc(Cl)nn3c(-c4cc5nc(Nc6ccccc6)[nH]c5cc4F)cnc23)CC1 [compound 31, 6-Chloro-3-(6-fluoro-2-(phenylamino)-1H-benzo[d]imidazol-5-yl)-N-((1-methylpiperidin-4-yl)methyl)imidazo[1,2-b]pyridazin-8-amine]	100	100	96	98	94	86	97	92	73	–	100	84	100	63	92	99	100
